Consider three substances from patent publication US20230172961A1 (priority 2020, published 2023).

In the assay the target is SARS-CoV-2 exonuclease complex (nsp14 and nsp10) (Severe acute respiratory syndrome coronavirus 2, UniProt P0DTD1). In words: Exonuclease resistance of RNA terminated with nucleotide analogues, MALDI-TOF MS. The settings on record: for cleavage of extended RNA after 5 min exonuclease treatment / cleavage of extended RNA after 30 min exonuclease treatment: RNA extended by SARS-CoV-2 RdRp (FIGS. 48, 49); for relative resistance to excision by the exonuclease: analogue at the 3′ terminus of RNA, compared with other 3′ termini. It is filed as biochemical.

Regarding Sofosbuvir, the “cleavage of extended RNA after 5 min exonuclease treatment” value is given as “minimal appearance of cleavage products”, the “cleavage of extended RNA after 30 min exonuclease treatment” value is recorded as “significant amount of the intact Sofosbuvir-RNA remaining” and the “relative resistance to excision by the exonuclease” value (“relative resistance to excision” below) is “more protected from cleavage”. Further, under “listed as SFV”, the “cleavage of extended RNA after 5 min exonuclease treatment” value is recorded as “some reduction in the height” and the “cleavage of extended RNA after 30 min exonuclease treatment” value is reported as “still some SFV extended RNA remaining”.

With 2′-O-methyl CMP, the “relative resistance to excision” value was “resistant to excision”. For the same substance, the “relative resistance to excision” value (listed as 2′-O-Me-CTP) is “much more full-length RNA remaining”.

For the substance UMP, the “cleavage of extended RNA after 5 min exonuclease treatment” value is reported as “substantial cleavage” and the “cleavage of extended RNA after 30 min exonuclease treatment” value is reported as “completely disappears”.
